Entries after “also recorded” stand apart in the source; their conditions may differ.
How the values were obtained:
Type in all cases: cell-based, human
[1] = tested on: naive hPSC aggregates; test: Induction of blastoids and trophospheres from naive hPSC aggregates in microwell arrays (yield counted by morphology); settings: for effect on blastoid formation / yield of blastoids: naive hPSC aggregates in PALY medium complemented with the molecule every day, 0 to 96 hours; for morphology of hPSC aggregates upon stimulation: stimulation of hPSC aggregates with LPA or NAEPA; for formation of blastoids versus trophospheres: 3 μM SC144 in PALLY medium for 4 days (0 to 96 hours)
Experimental: Naive hPSCs or primed hPSCs cultures were treated with Accutase (Biozym, B423201) at 37° C. for 5 min, followed by gentle mechanical dissociation with a pipette. After centrifugation, the cell pellet was resuspended in PXGL medium, supplemented with Y-27632 (10 μM, MedChemExpress, HY-10583). To exclude MEF, the cell suspension was transferred onto gelatin coated plates and incubated at 37° C. for 70 min. After MEF exclusion, the cell number was determined using a Countess™ automated cell counter (Thermo Fisher Scientific) and Trypan Blue staining to assess cell viability. The cells were then resuspended in N2B27 media containing 10 μM Y-27632 (aggregation medium) and 3.0×10^4 cells were seeded onto a microwell array included into a well of a 96-well plate. The cells were allowed to form aggregates inside the microwell for a period ranging from 0 to 24 hours depending on the cell lines and based on their propensity for aggregation. Subsequently, the aggregation medium was replaced with PALLY medium-N2B27 supplemented with PD0325901 (1 μM), A 83-01 (1 μM, MedChemExpress, HY-10432), hLIF (10 ng/ml), 1-Oleoyl lysophosphatidic acid sodium salt (LPA) (500 nM, Tocris, 3854) and Y27632 (10 μM). The PALLY medium was refreshed every 24 hours. After 48 hours, the PALLY medium was replaced with N2B27 medium containing 500 nM LPA and 10 μM Y-27632. At 96 hours, a blastoid is defined based on morphological similarity to B6 staged human blastocyst, as a structure composed of a monolayered cyst with an overall diameter of 150-250 μm comprising one inner cell cluster. We also verified that, beyond the morphology, blastoids form analogs of the three blastocyst cell lineages in the sequential and timely manner of blastocyst development. […] The effect of LPA, NAEPA (Sigma-Aldrich, N0912) and Verteporfin (Selleck Chemicals Llc, S1786) on the yield of blastoid formation was assessed by culturing naive hPSC aggregates in PALY medium complemented with molecules added every day from 0 to 96 hours. The Verteporfin treatment was executed without exposure to the light. The effect of the aPKC inhibitor CRT0103390 (Gift from the laboratory of Kathy Niakan) was assessed by culturing naive hPSC aggregates in PALLY medium complemented with 2 μM CRT0103390 every day from 0 to 96 hours. The formation of trophospheres was induced by culturing naive hPSC aggregates in PALLY medium complemented with 2 μM XMU-MP-1 (Med Chem Express, HY-100526) or 3 μM SC-144 (Axon, 2324) every day from 0 to 96 hours. The BSA concentration was titrated within the range of 0-0.3% for individual cell lines used for the formation of the blastoids and trophospheres.
The phase contrast images were acquired using Thermo Fisher scientific EVOS cell imaging system and inverted wide field microscope Axio VertA1. The number of blastoids or cavitated structures were counted manually for each well. After 96 hours, a blastoid is defined based on the morphological parameters as described in previous sections. The fluorescent images and timelapse images were acquired using Olympus IX83 microscope with Yokogawa W1 spinning disk (Software: CellSense 2.3; camera: Hamamatsu Orca Flash 4.0) or Nikon Eclipse Ti E inverted microscope, equipped with a Yokogawa W1 spinning disc (Software: Visiview 4.5.0.7; camera: Andor Ixon Ultra 888 EMCCD). The confocal images were analyzed and display images were exported using FIJI 1.53k or Bitplane Imaris 9.7.0 softwares. For cell counting, Bitplane Imaris software was used. Cell count parameters were set for size and fluorescence strength of voxels and then overall cell count data was obtained for each image using Imaris's spot function. Note that large cavities in blastoids increase the depth of the imaging field causing poor signal from deeply located cells. Therefore, our counting data in FIG. 8H could be underrepresented values, particularly in the case of trophectoderm cells. The quantification of the percentage of blastoids forming the NR2F2 axis was done manually. […]

[2] = tested on: endometrial cells (open-faced endometrial layer, OFEL); test: qRT-PCR of window-of-implantation markers in endometrial cells (OFELs); settings: for expression of the gene PAEP (marker of the WOI): endometrial cells, Wnt inhibition
Experimental: (§1) Endometrial organoids were passaged as described in the previous section. The dissociated cells were resuspended in Matrigel supplemented with Y-27632 (10 μM), cell suspension was deposited in 48-well plates and were cultured in endometrial expansion medium for 2 days. The organoids were stimulated first with E2 (10 nM, Sigma-Aldrich, E2758) for 2 days, followed by the mixture of E2 (10 nM), P4 (1 μM, Sigma-Aldrich, P8783), and CAMP (250 μM, Biolog, B 007) with or without XAV939 (10 µM) (EPC or EPCX respectively) for 4 days. For OFELs culture, organoids were recovered from the matrigel droplets with ice-cold DMEM/F12 and mechanical pipetting. The organoids were dissociated using TrypLE and mechanically triturated to generate single cells and seeded at the density of 3 to 3.5×10^4 cells per well into a 96-well glass bottom plate (Cellvis, P96-1.5H-N) and cultured for 2-3 days with stimulation. For contraceptive treatment, levonorgestrel (LNG) (10 μM, Sigma-Aldrich, PHR1850) was added every day to the medium two days after hormonal stimulation and continued until the end of experiment.
RNA was extracted using the RNeasy mini kit (Qiagen, 74106) and cDNA synthesis was performed using the Superscript III (Invitrogen, 18080093) enzyme. qPCR reactions were performed using GoTaq® qPCR Master Mix (Promega, A6001) on CFX384 Touch Real-Time PCR Detection System (Bio-rad). Quantification was performed using Microsoft Office Excel by applying the comparative Cycle threshold (Ct) method. Relative expression levels were normalized to GAPDH.

[3] = tested on: Open Face Endometrial Layer (OFEL); test: In vitro implantation assay: attachment of blastoids or trophospheres onto OFELs; settings: for potential of endometrial cells to interact with human blastoids: EPC stimulation combined with the Wnt inhibitor
Experimental: as §1
Confluent OFELs were prepared for the implantation assay at least 2 hours prior to the deposition of blastoids, trophospheres, naive hPSCs or hTSCs aggregates by washing the OFEL two times with DMEM/F12 and adding IVC medium (Xiang, L. et al. Nature 577, 537-542 (2020)). Structures were then transferred onto the OFELs using a mouth pipette under an inverted microscope. After 24-48 hours, the medium was removed, the well was washed with PBS, fixed using 4% formaldehyde for 30 minutes at room temperature and subsequently processed for immunofluorescence staining. The percentage of attached structures was reported as the percentage of total transferred structures.

1-Oleoyl lysophosphatidic acid sodium salt [LPA]
effect on blastoid formation / yield of blastoids ([1]; sodium salt): increases; also recorded: significantly improved efficiency; also recorded: enhanced blastoid formation
morphology of hPSC aggregates upon stimulation [1]: leads to the transition from a solid aggregate of cells to a cystic structure including a single fluid-filled cavity

NC(=O)c1ccc(-c2nc(-c3ccc4c(c3)OCO4)c(-c3ccccn3)[nH]2)cc1 [SB431542]
blastoid formation with alternative TGF-b inhibitor ([1]; 1 μM SB431542 for 4 days in combination with PLLY): also work

Oc1nc(-c2ccc(C(F)(F)F)cc2)nc2c1CSCC2 [XAV939]
expression of PAEP, SPP1, LIF and DPP4 (RTqPCR) ([2]; endometrial cells cultured with XAV939): increases the expression of PAEP, SPP1, LIF and DPP4
expression of the gene PAEP (marker of the WOI) [2]: increase the expression of the gene PAEP
potential of endometrial cells to interact with human blastoids [3]: increases the potential of endometrial cells to interact with human blastoids

Cn1ncnc2c(=O)n(C)c(=O)nc1-2 [PKF118-310]
expression of the gene PAEP (marker of the WOI) [2]: increase the expression of the gene PAEP

Cc1ccc2nc(NC(=O)CSc3nc4c(c(=O)n3-c3ccccc3)SCC4)sc2c1 [IWP-2]
potential of endometrial cells to interact with human blastoids [3]: increases the potential of endometrial cells to interact with human blastoids

LIF: leukemia inhibitory factor, STAT3 agonist
blastoid formation efficiency versus LIF concentration ([1]; dose dependent effect of LIF): blastoid formation efficiency increased with LIF concentration

CN1C(=O)c2sccc2N(C)c2nc(Nc3ccc(S(N)(=O)=O)cc3)ncc21 [XMU-MP-1]
formation of trophospheres ([1]; 2 μM XMU-MP-1 in PALLY medium for 4 days (0 to 96 hours)): results in the formation of trophospheres; also recorded: induces the formation of trophospheres with limited or no epiblast-like cells and hypoblast-like cells; also recorded: yielded trophospheres
attachment of trophospheres to stimulated endometrial cells (OFELs) ([3]; trophospheres formed using 2 μM XMU-MP-1): fail to attach and invade stimulated endometrial cells; also recorded: largely fail to attach and to invade the endometrial layer; also recorded: failed to attach to OFELs

N-[2-(phosphonooxy)ethyl]-9Z-octadecenamide [NAEPA]
effect on blastoid formation / yield of blastoids [1]: increases; also recorded: enhanced blastoid formation
morphology of hPSC aggregates upon stimulation [1]: leads to the transition from a solid aggregate of cells to a cystic structure including a single fluid-filled cavity

O=C(NNc1nc2cc(F)ccc2n2cccc12)c1cnccn1 [SC144]
formation of blastoids versus trophospheres [1]: a decrease in the formation of blastoids and an increase in the formation of trophospheres; also recorded: induces the formation of trophospheres with limited or no epiblast-like cells and hypoblast-like cells; also recorded: yielded trophospheres
formation of blastoids versus trophospheres ([1]; listed as SC-144): induced the formation of mono-layer cavitated aggregate that does not form an inner cluster of Epi-/Hypo-like cells
maturation of lineage specification of outer trophectoderm cells ([1]; SC-144 treatment): compromised
attachment of trophospheres to stimulated endometrial cells (OFELs) ([3]; trophospheres formed using 3 μM SC144): fail to attach and invade stimulated endometrial cells; also recorded: largely fail to attach and to invade the endometrial layer; also recorded: failed to attach to OFELs

Verteporfin
formation of a cavity ([1]; aggregate of hPSCs treated with Verteporfin, 1 μM): totally prevents the formation of a cavity
effect on blastoid formation / yield of blastoids [1]: decreases; also recorded: prevented blastoid formation

Cc1ccc(/C=N/NC(=O)c2ccccc2Oc2ccccc2)o1 [PNU-74654]
potential of endometrial cells to interact with human blastoids [3]: increases the potential of endometrial cells to interact with human blastoids
